± gives the standard deviation of the reports.
| Structure (SMILES) | glass transition temperature [°C] |
| --- | --- |
| *CCCCCCCCOc1c(OC)cc(/C=C/c2ccc(/C=C/c3ccc(/C=C/c4cc(OC)c(O*)c(OC)c4)cc3)cc2)cc1OC (repeat unit) | 78.70 |
| */C=C(/c1ccc(*)cc1)c1ccc(C(F)(F)F)cc1 (repeat unit) | 199.00 |
| *CCCCCCCCOc1ccc(C(C)(C)c2ccc(O*)cc2)cc1 (repeat unit) | 19.60 |
| *CCCCCC(=O)O* (repeat unit) [Poly(caprolactone)] | 55.0 ± 78 |
| *OCCOC(=O)CCCCC(=O)OCCOc1nc(-c2ccc(OC)cc2)nc(*)c1-c1ccc(OC)cc1 (repeat unit) | 48.00 |
| *O[Si](C)(C)O[Si](C)(C)O[Si](C)(C)O[Si](C)(C)C#Cc1ccc(C#C[Si](*)(C)C)cc1 (repeat unit) | 84.00 |
| *CCCC(*)(C)CC (repeat unit) | -23.00 |
| *Oc1cc(CC)cc(OC(=O)c2cccc(C(*)=O)c2)c1 (repeat unit) | 138.00 |
| *O[Si](*)(C)CCC (repeat unit) | -120.00 |
| *CCCCCNC(=S)N* (repeat unit) | 55.00 |
| *Oc1ccc(Oc2cccc(*)n2)c(-c2ccccc2)c1 (repeat unit) | 115.00 |
| *Oc1ccc(CC(NC(=O)CCc2ccc(OC(*)=O)cc2)C(=O)OCCCCCC)cc1 (repeat unit) | 51.50 |
| *OP(=O)(Oc1ccc(OC)cc1)Oc1ccc(S(=O)(=O)c2ccc(*)cc2)cc1 (repeat unit) | 81.00 |
| *CC(*)(CC(=O)OCC)C(=O)OCC (repeat unit) | 65.50 |
| *CC(OC1CCCCC1)C1C(=O)OC(=O)C1* (repeat unit) | 201.00 |
| *CC(c1ccccn1)C(c1ccccc1)C(*)c1ccccn1 (repeat unit) | 150.00 |
| *CC(C)(C)CS(=O)(=O)CC(C)(C)COC(=O)NCCCCCCNC(=O)O* (repeat unit) | 30.00 |

| Structure (SMILES) | glass transition temperature [°C] |
| --- | --- |
| *O[Si](C)(C)O[Si](C)(C)O[Si](C)(C)O[Si](C)(C)O[Si](C)(C)c1ccc([Si](*)(C)C)cc1 (repeat unit) | -80.00 |
| *CCc1ccc(*)c(C)c1 (repeat unit) [Poly(methyl-p-xylylene) ] | 55 ± 1.9 |
| *C(F)(F)C(*)(F)C(F)(F)C(F)(F)C(F)(F)C(F)(F)C(F)(F)F (repeat unit) | 232.50 |
| *CC(*)OCCCCCCCC (repeat unit) [Poly(octyl vinyl ether)] | -79.83 ± 0.9 |
| *OC(=O)OCCCCOC(=O)OC1COC2C(*)COC12 (repeat unit) | 49.00 |
| *CCC(C)(C)CC(C)COC(=O)CCCCC(=O)O* (repeat unit) | -70.00 |
| *CC(=O)NCC(=O)O* (repeat unit) | 67.00 |
| *CC(*)(C)C(=O)OCc1ccccc1Cl (repeat unit) | 54.10 |
| *Oc1ccc(C(c2ccc(OC(*)=O)cc2)C2C3CCC(C3)C2c2ccccc2)cc1 (repeat unit) | 196.00 |
| *OC(COC(=O)c1ccc(C)cc1C(*)=O)COc1ccc(/N=N/c2ccc(C#N)cc2)cc1 (repeat unit) | 124.00 |
| *c1ccc(Oc2ccc(Oc3ccc(P(=O)(c4ccccc4)c4ccc(Oc5ccc(Oc6ccc(-c7nc8ccccc8nc7*)cc6)cc5)cc4)cc3)cc2)cc1 (repeat unit) | 209.00 |
| *CC(O)CN(CC(O)CN(*)c1ccccc1)c1ccc(/N=N/c2ccc([N+](=O)[O-])cc2)cc1 (repeat unit) | 70.00 |
| *CC(*)C(=O)Nc1ccc(C(=O)/C=C/c2ccc(Br)cc2)cc1 (repeat unit) | 64.00 |
| *Oc1ccc(CC(NC(=O)CCc2ccc(OC(=O)CCCCCCC(*)=O)cc2)C(=O)OCCCCCC)cc1 (repeat unit) | 27.00 |
| *CC(*)OC(=O)C(F)(F)C(F)(F)C(F)(F)C(F)(F)F (repeat unit) | 20.00 |
| *c1ccc2c(c1)Sc1cc(-c3sc4cc(*)sc4c3CCCCC)ccc1N2CCCCCCCCCCCC (repeat unit) | 136.00 |
| *CCC(C)(C)CC(C)COC(=O)c1ccc(C(=O)O*)cc1 (repeat unit) | -9.00 |

Next, values leading:

| glass transition temperature [°C] | Structure (SMILES) |
| --- | --- |
| 158.50 | *c1ccc(Sc2ccc(Sc3ccc(Sc4ccc(Sc5ccc(N6C(=O)c7ccc(Oc8ccc9c(c8)C(=O)N(*)C9=O)cc7C6=O)cc5)s4)s3)s2)cc1 (repeat unit) |
| 94.00 | *O[Si](c1ccccc1)(c1ccccc1)c1ccc(-c2ccc([Si](*)(c3ccccc3)c3ccccc3)cc2)cc1 (repeat unit) |
| 351.00 | *c1ccc2c(c1)C(=O)N(c1ccc(C(=O)Nc3ccc(C(c4ccc(NC(=O)c5ccc(N6C(=O)c7ccc(C(*)(C(F)(F)F)C(F)(F)F)cc7C6=O)cc5)cc4)(C(F)(F)F)C(F)(F)F)cc3)cc1)C2=O (repeat unit) |
| 167.00 | *c1ccc2c(c1)C(=O)N(c1ccc(Oc3ccc(N4C(=O)c5ccc(C(*)O[Si](C)(C)O[Si](C)(C)O[Si](C)(C)C)cc5C4=O)cc3)cc1)C2=O (repeat unit) |
| 191.00 | *c1ccc(Oc2ccc(C(c3ccc(Oc4ccc(N5C(=O)c6ccc(Oc7ccccc7Oc7ccc8c(c7)C(=O)N(*)C8=O)cc6C5=O)cc4C(F)(F)F)cc3)(C(F)(F)F)C(F)(F)F)cc2)c(C(F)(F)F)c1 (repeat unit) |
| 142.00 | *c1ccc(Oc2ccc(Sc3ccc(Oc4ccc(-c5ccc(*)s5)cc4C(F)(F)F)cc3)cc2)c(C(F)(F)F)c1 (repeat unit) |
| 155.00 | *c1ccc(Oc2ccc(C(c3ccc(Oc4ccc(-c5ccc(*)s5)cc4C(F)(F)F)cc3)(C(F)(F)F)C(F)(F)F)cc2)c(C(F)(F)F)c1 (repeat unit) |
| 305.00 | *c1ccc(-c2ccc(-c3ccc(-c4cnc5ccc(-c6ccc7ncc(*)nc7c6)cc5n4)cc3)cc2)cc1 (repeat unit) |
| 263.00 | *c1ccc(Oc2ccc(NC(=O)CN3C(=O)c4ccc(C(c5ccc6c(c5)C(=O)N(CC(=O)Nc5ccc(Oc7ccc(-c8nnc(*)o8)cc7)cc5)C6=O)(C(F)(F)F)C(F)(F)F)cc4C3=O)cc2)cc1 (repeat unit) |
| 68.00 | *O[Si](C)(C)CCCC(=O)Oc1ccc(/C=N/c2ccc(Cc3ccc(/N=C/c4ccc(OC(=O)CCC[Si](*)(C)C)cc4)cc3)cc2)cc1 (repeat unit) |
| 140.00 | *CCN(CCOC(=O)Nc1ccc(-c2ccc(NC(=O)O*)c(OC)c2)cc1OC)c1ccc(/N=N/c2ccc([N+](=O)[O-])cc2)cc1 (repeat unit) |
| 105.50 | *Oc1ccc(OC(=O)c2ccc(OCCCCCCOc3ccc(C(*)=O)cc3)cc2)cc1S(=O)(=O)c1ccccc1 (repeat unit) |
| 193.00 | *c1ccc(Oc2ccccc2Oc2ccc(N3C(=O)c4ccc(Oc5ccccc5Oc5ccc6c(c5)C(=O)N(*)C6=O)cc4C3=O)cc2)cc1 (repeat unit) |
| 132.00 | *CC(*)c1ccc(COc2ccc(-c3ccc(C#N)cc3)cc2)cc1 (repeat unit) |
| 197.00 | *Oc1ccc(C2(c3ccc(OC(=O)c4ccc(Oc5ccc(C6(c7ccc(Oc8ccc(C(*)=O)cc8)cc7)CCC(C(C)(C)C)CC6)cc5)cc4)cc3)C3CC4CC(C3)CC2C4)cc1 (repeat unit) |
| 105.00 | *CC(O)COc1ccc(S(=O)(=O)c2ccc(OCC(O)COc3cccc(O*)c3)cc2)cc1 (repeat unit) |
| 248.00 ± 25 | *c1ccc(Oc2cccc(Oc3ccc(N4C(=O)c5ccc(-c6cccc7c6C(=O)N(*)C7=O)cc5C4=O)cc3)c2)cc1 (repeat unit) |
| 155.00 | *CCCCCCN1C(=O)c2ccc(C(c3ccc4c(c3)C(=O)N(*)C4=O)(C(F)(F)F)C(F)(F)F)cc2C1=O (repeat unit) |
| 274.00 | *C(=O)c1ccc2c(c1)C(=O)N(c1cc(/C=N/C(=S)Nc3ccc(N4C(=O)c5ccc(*)cc5C4=O)cc3)ccc1Cl)C2=O (repeat unit) |
| 242.00 | *c1ccc(Oc2ccc(C(=O)c3ccc(Oc4ccc(-c5nc6ccccc6n5-c5ccc(-n6c(*)nc7ccccc76)cc5)cc4)cc3)cc2)cc1 (repeat unit) |
| 267.50 | *C(=O)c1cc(C(=O)c2ccc3c(c2)C(=O)N(c2ccc(C(c4ccc(N5C(=O)c6ccc(*)cc6C5=O)cc4)(C(F)(F)F)C(F)(F)F)cc2)C3=O)cc(C(C)(C)C)c1 (repeat unit) |
| 265.00 | *c1ccc([Si](c2ccccc2)(c2ccccc2)c2ccc(-c3nnc(-c4cccc(-c5nnc(*)o5)n4)o3)cc2)cc1 (repeat unit) |
| 361.00 | *c1ccc(Oc2ccc(-c3c4ccccc4c(-c4ccc(Oc5ccc(-c6c7c(c(*)c8ccccc68)C(=O)N(c6ccccc6)C7=O)cc5)c(C(F)(F)F)c4)c4ccccc34)cc2C(F)(F)F)cc1 (repeat unit) |
| 329.00 | *c1ccc2nc(-c3ccc4c(c3)C(=O)N(c3cc(C(*)(C(F)(F)F)C(F)(F)F)ccc3O)C4=O)oc2c1 (repeat unit) |
| 66.00 | *Oc1ccc(CC(NC(=O)CCc2ccc(OC(=O)CCCC(*)=O)cc2)C(=O)OCc2ccccc2)cc1 (repeat unit) |
| 111.00 | *Oc1ccc(/C(=C/c2ccc(-c3ccc(/C=C(\c4ccccc4)c4ccc(OC(=O)CCCCCCCCC(*)=O)cc4)cc3)cc2)c2ccccc2)cc1 (repeat unit) |
| 141.00 | *Oc1ccc(C(=O)c2cccc(NC(=O)CCCCCCCCC(=O)Nc3cccc(C(=O)c4ccc(*)cc4)c3)c2)cc1 (repeat unit) |
| 303.00 | *C(=O)c1ccc2c(c1)C(=O)N(c1ccc(/C=C/c3ccc(N4C(=O)c5ccc(*)cc5C4=O)cc3)cc1)C2=O (repeat unit) |
| 277.00 | *Nc1ccc(C2(c3ccc(NC(=O)c4cccc(C(*)=O)c4)cc3)c3ccccc3-c3ccccc32)cc1 (repeat unit) |
| 144.50 | *c1ccc(Oc2ccc(Sc3ccc(Oc4ccc(-c5cccc(*)n5)cc4C(F)(F)F)cc3)cc2)c(C(F)(F)F)c1 (repeat unit) |
